Laboratory results from ChEMBL document CHEMBL1149748, “Studies on Formosan soft corals. II. Cytotoxic cembranolides from the soft coral Lobophytum michaelae” (1992).
Values after ≈ are worked out from the molar mass of the structure shown.

Assays:
Type in all cases: functional
A549 = assay: Cytotoxicity against human A549 cells after 6 days by MTT assay; conditions: A549, 144 h, read-out: ED50 (the source's name)
HT-29 = assay: Cytotoxicity against human HT-29 cells after 6 days by MTT assay; conditions: HT-29, 144 h, read-out: ED50 (the source's name)
KB = assay: Cytotoxicity against human KB cells after 3 days by MTT assay; conditions: 72 h, read-out: ED50 (the source's name)
P388 = assay: Cytotoxicity against mouse P388 cells after 3 days by MTT assay; conditions: P388, 72 h, read-out: ED50 (the source's name)

Row | SMILES | EC50 (A549) [µg/mL] | EC50 (HT-29) [µg/mL] | EC50 (KB) [µg/mL] | EC50 (P388) [µg/mL]
1 | C=C1C(=O)O[C@@H]2[C@H]1[C@H](OC(C)=O)C/C(C)=C/C[C@H](OC(C)=O)/C(C)=C/C[C@@H](OC(C)=O)[C@]1(C)O[C@@H]21 [CRASSOLIDE] | 0.39 (≈ 0.795 µM) | 0.26 (≈ 0.53 µM) | 0.85 (≈ 1.73 µM) | 0.08 (≈ 0.163 µM)
2 | C=C1C(=O)O[C@@H]2[C@H]1[C@@H](OC(C)=O)C/C(C)=C/[C@@H](OC(C)=O)C/C(C)=C/CC[C@@]1(C)O[C@H]21 [LOBOMICHAOLIDE] | 0.38 (≈ 0.879 µM) | 0.37 (≈ 0.855 µM) | 0.59 (≈ 1.36 µM) | 0.34 (≈ 0.786 µM)
